Reference: patent US20030162759A1, “Aldosterone blocker therapy to prevent or treat inflammation-related disorders” (priority 2000, published 2003)
Where “and” joins values, the source holds several entries; their conditions need not be identical. Equal entries are not always repeated. Entries after “also recorded” stand apart in the source; their conditions may differ.

Legend:
Type in all cases: in vivo, rat
[1] = test system: Intercellular Adhesion Molecule-1 (ICAM-1); assay: Assay C: ICAM-1 relative mRNA expression in heart (TaqMan); conditions: for ICAM, Mean / ICAM: mRNA; for ICAM, Mean: group mean; for ICAM: individual rats; for ICAM-1 mRNA expression in myocardium: time course 7, 14, 30 days, eplerenone 100 mg/kg/day
Procedure: (§1) The procedure of Assay B was expanded upon in a further study. […] Myocardial tissue from animals in each treatment group was examined after 7, 14, or 30 days of treatment.
(§2) Potassium chloride supplementation was added to the saline solution in order to prevent the potential hypokalemia associated with aldosterone excess.
(§3) At the time of the surgery, an Alzet 2002 osmotic minipump (Alza Corp., Palo Alto, Calif.) containing either vehicle (9% ethanol/87% propylene glycol/4% dH2O) or 1.0 mg/mL d-aldosterone (Sigma Chemical, St. Louis, Mo.) was inserted subcutaneously at the nape of the neck. Aldosterone was administered at a dose of 0.75 g/hour. […] Animals were sacrificed from each group (n=8-13) after 7, 14, or 30 days of treatment.
(§4) The fluorogenic 5′-nuclease assay (TaqMan PCR) using Applied Biosystems' 7700 Sequence Detection System (Applied Biosystems, Foster City, Calif.) allowed for real time detection/quantitation of a specific gene by monitoring the increase in fluorescence of a gene-specific, dye-labeled oligonucleotide probe. Probes for target and reference genes were labeled at the 5′-end with a 6-carboxyfluorescein (6FAM) reporter dye and at the 3′-end with a 6-carboxy-N,N,N′,N′-tetramethylrhodamine (TAMRA) quencher dye. When the probe was annealed to the target gene, fluorescence of 6FAM was prevented by the close proximity of TAMRA. The exonuclease activity of Taq polymerase released the dyes from the oligonucleotide probe by displacing the probe from the target sequence resulting in fluorescence excitation in direct proportion to the amount of target message present. Data analysis was performed using the Sequence Detection System software from Applied Biosystems.
(§5) All primers and probes were designed using Primer Express software supplied with the 7700 Sequence Detection System and synthesized by Applied Biosystems. Standard curves using 5-fold dilutions of total RNA (from 200 ng to 320 pg) were performed to determine the efficiency of each primer/probe set in the TaqMan reaction prior to the analysis of the experimental samples. Primer/probe sets were designed from known sequences of rat genes to be analyzed. All target gene values were normalized to a reference gene, constitutively expressed cyclophilin. Primer/probe set sequences can be found in Table 8.
(§6) RNA was extracted from frozen (−80° C.) rat heart tissue using the Totally RNA Isolation Kit (Ambion, Inc., Austin, Tex.). Tissue was crushed using a stainless steel mortar and pestle, which had been chilled to −80° C. and transferred to a dounce homogenizer (Kontes, Vineland, N.J.) containing 3-10 mL cold denaturation buffer. Tissue was homogenized and transferred to a sterile, 15 mL polypropylene centrifuge tube. An equal volume of phenol:chloroform:isoamyl alcohol (25:24:1) was added, samples were shaken vigorously for 1 min, and incubated on ice for at least 15 min. Samples were centrifuged for 30 min at 10,000 g. The aqueous phase was removed, 1/10 volume of a sodium acetate solution (3.0 M NaOAc pH 4.5) was added, samples were shaken or inverted for 10 seconds, and acid-phenol (premixed with isoamyl alcohol):chloroform (5:1, Ambion, Inc.) was added at an volume equivalent to the starting sample volume. Samples were shaken vigorously for 1 min, followed by a 15-min incubation on ice, and centrifuged for 30 min at 10,000 g. The aqueous phase removed and placed in a clean polypropylene tube. An equal volume of isopropanol (Sigma, St. Louis, Mo.) was added and the samples were mixed and incubated overnight at −20° C. The samples were centrifuged for 30 min at 10,000 g, the supernatant was removed and the RNA pellet was resuspended in DNAse/RNAse-free water. Samples were frozen at −80° C. for at least 2 hours, thawed on wet ice, and diluted for quantitation.

[2] = test system: Monocyte Chemoattractant Protein-1 (MCP-1); assay: Assay C: MCP-1 relative mRNA expression in heart (TaqMan); conditions: for MCP1, Mean / MCP1: mRNA; for MCP1, Mean: group mean; for MCP1: individual rats; for MCP-1 mRNA expression in myocardium: time course 7, 14, 30 days, eplerenone 100 mg/kg/day
Procedure: as §1, §2, §3, §4, §5, §6

Collagen III = assay: Assay C: Collagen III mRNA in left ventricle (TaqMan); conditions: for Collagen-III mRNA: individual rats; for Collagen-III mRNA, Mean: group mean
Procedure: as §1, §2, §3
Following exsanguination, hearts and kidneys were isolated, removed, rinsed in cold phosphate-buffered saline, and blotted dry. Kidneys were immediately bifurcated through the long axis with a razor blade and placed in 10% neutral buffered formalin (NBF, Richard-Allen Scientific, Kalamazoo, Mich.). For the hearts, the right ventricle (RV) was cut away from the left ventricle (LV), both ventricles were weighed using a Mettler AE163 balance (Mettler-Toledo, Inc., Hightstown, N.J.), and the RV was placed in 10% NBF. A 2 mm coronal slab of the LV apex was removed and frozen with dry ice/isopentane for analysis of gene expression and the remaining portion of the LV was placed in 10% NBF for fixation. Final wet trimming was completed after 3-4 days fixation where a second 2 mm coronal slab was removed for hydroxyproline analysis and a third 2 mm slab was removed from the equatorial region for histology.
as §4
Primers and probes were designed using Oligo Primer Analysis Software, Version 5.0 (National Biosciences Inc. (NBI)-Wojciech Rychlik, Cascade, Colo.). Primers were synthesized by Life Technologies (Grand Island, N.Y.) and probes were synthesized by Applied Biosystems. Primer/probe sets were designed from known sequences of rat genes to be analyzed. All target gene values were normalized to a reference gene, constitutively expressed cyclophilin. Primer/probe sets sequences can be found in Table 8
RNA was extracted from frozen (−70° C.) left ventricle (LV) tissue (approximately 10-20 mg) using 1.5 mL RNA-STAT 60 according to manufacturer's instructions (Leedo Medical Laboratories, Inc., Houston, Tex.). Briefly, tissues were homogenized using a tissue homogenizer equipped with a 5 mm probe (Ultra-Turrax T8 Homogenizer, IKA Works, Inc. Wilmington, N.C.). Following homogenization, an equal volume of molecular grade chloroform (Sigma Chemical Co., St. Louis, Mo.) was incubated with periodic mixing for 10 min at room temperature. Samples were centrifuged at 12,000 g for 10 min and RNA was precipitated from the top layer by adding an equal volume of molecular grade isopropanol (Sigma Chemical Co.) followed by an overnight incubation at −80° C.

aldosterone infused rats = assay: Assay B aldosterone infusion model: heart histology (vascular inflammatory lesions, myocardial injury); conditions: saline-drinking, uni-nephrectomized rats, 4 weeks, eplerenone 100 mpk p.o.
Procedure: Assay B: In vivo Aldosterone Infusion Model Male Sprague Dawley rats (n=39; BW=250 g) […] Uni-nephrectomy performed during implantation of mini-pumps 2. Aldosterone (0.75 mg/hr, sc via aizet minipump) 2. […] 1. […] Sacrifice after 4 weeks. Hearts were harvested and divided by half through a transverse section at the mid-ventricles: The upper half was stored into formalin. The bottom part was snap-frozen in liquid nitrogen for biochemical analysis. Hearts were stained with hematoxylin&eosin and the collagen specific dye picro-sirius red and were analyzed for determination of interstitial collagen volume fraction and morphologic abnormalities (i.e. necrosis, vascular injury).

[3] = 7 days of treatment, listed as Aldosterone + salt
[4] = 14 days of treatment, listed as Aldosterone + salt
[5] = 30 days of treatment, listed as Aldosterone + salt
[6] = 7 days of treatment, listed as Eplerenone + aldosterone + salt
[7] = 14 days of treatment, listed as Eplerenone + aldosterone + salt
[8] = 30 days of treatment, listed as Eplerenone + aldosterone + salt

## C[C@]12CCC(=O)C=C1CC[C@@H]1[C@@H]2[C@@H](O)C[C@]2(C=O)[C@@H](C(=O)CO)CC[C@@H]12 [aldosterone]
[1]; 14 days of treatment
  ICAM, Mean: 1.47 AU
[1]; 30 days of treatment
  ICAM, Mean: 1.81 AU
[1]; [3]
  ICAM: 1.39 AU and 0.80 AU and 1.68 AU
[1]; [4]
  ICAM: 1.16 AU
[1]; [5]
  ICAM: 1.50 AU
[1]
  ICAM-1 mRNA expression in myocardium: upregulated at day 14 and 30
[2]; 14 days of treatment
  MCP1, Mean: 2.76 AU
[2]; 30 days of treatment
  MCP1, Mean: 4.54 AU
[2]; [3]
  MCP1: 2.40 AU
[2]; [4]
  MCP1: 2.50 AU
[2]; [5]
  MCP1: 2.30 AU
[2]
  MCP-1 mRNA expression in myocardium: significantly increased
Collagen III; Table 9.14, 7-day protocol, listed as Aldosterone + salt
  Collagen-III mRNA: 0.65 AU and 1.30 AU
Collagen III; 14 days of treatment
  Collagen-III mRNA, Mean: 1.08 AU
Collagen III; 30 days of treatment
  Collagen-III mRNA, Mean: 1.39 AU
Collagen III; 14 days of treatment, relative to cyclophilin expression, listed as Aldosterone + salt
  Collagen-III mRNA: 0.76 AU and 1.80 AU and 0.44 AU and 1.39 AU and 0.59 AU
Collagen III; 30 days of treatment, relative to cyclophilin expression, listed as Aldosterone + salt
  Collagen-III mRNA: 0.75 AU and 0.58 AU and 0.72 AU
Aldosterone infused rats
  Vascular inflammatory changes / myocardial injury: severe vascular inflammatory lesions

## COC(=O)[C@@H]1CC2=CC(=O)CC[C@]2(C)[C@@]23O[C@@H]2C[C@@]2(C)[C@@H](CC[C@@]24CCC(=O)O4)[C@H]13 [eplerenone, Pregn-4-ene-7,21-dicarboxylic acid, 9,11-epoxy-17-hydroxy-3-oxo-, γ-lactone, methyl ester, (7α, 11α, 17β) -]
[1]; 7 days of treatment
  ICAM, Mean: 0.83 AU
[1]; 14 days of treatment
  ICAM, Mean: 1.19 AU
[1]; 30 days of treatment
  ICAM, Mean: 1.22 AU
[1]; [6]
  ICAM: 0.91 AU and 0.89 AU (2×) and 0.40 AU and 0.58 AU and 1.00 AU
[1]; [7]
  ICAM: 1.20 AU and 0.95 AU and 1.26 AU and 1.56 AU and 0.98 AU (2×) and 0.79 AU and 0.83 AU
[1]; [8]
  ICAM: 1.21 AU and 1.26 AU and 0.60 AU and 0.99 AU
[1]
  ICAM-1 mRNA expression in myocardium: significantly reduced; also recorded: inhibition of early time-course expression of myocardial ICAM-1 and VCAM-1
[2]; 7 days of treatment
  MCP1, Mean: 1.56 AU
[2]; 30 days of treatment
  MCP1, Mean: 2.29 AU
[2]; [6]
  MCP1: 1.60 AU and 0.85 AU and 0.83 AU and 0.67 AU
[2]; [7]
  MCP1: 1.60 AU and 1.20 AU
[2]; [8]
  MCP1: 1.70 AU and 2.10 AU
[2]
  MCP-1 mRNA expression in myocardium: significantly reduced; also recorded: inhibition of early time-course expression of myocardial MCP-1
Collagen III; 14 days of treatment, relative to cyclophilin expression, listed as Eplerenone + aldosterone + salt
  Collagen-III mRNA: 0.60 AU (2×) and 1.70 AU and 1.81 AU and 1.80 AU
Collagen III; 30 days of treatment, relative to cyclophilin expression, listed as Eplerenone + aldosterone + salt
  Collagen-III mRNA: 0.72 AU and 0.89 AU and 0.73 AU
Collagen III; mean ± SEM after 7 days of treatment, relative to cyclophilin expression
  Collagen-III (collagen type III mRNA): 1.09 ± 0.21 AU
Collagen III; mean ± SEM after 30 days of treatment, relative to cyclophilin expression
  Collagen-III (collagen type III mRNA): 1.53 ± 0.23 AU
Aldosterone infused rats
  Vascular inflammatory changes / myocardial injury: completely prevented the vascular inflammatory changes; also recorded: prevention by eplerenone of myocardial injury
